In ChEMBL document CHEMBL1121547 (J Med Chem, 1980):
pIC50: −log10 of the molar value.

Experiments:
[1] = target: GABA-A receptor; anion channel (Rattus norvegicus) (UniProt O09028+P15431+P18506+P18508+P19969+P20236+P23574+P23576+P28471+P28473+P30191+P62813+P63079+P63138+Q91ZM7+Q9ES14); experiment: Relative binding affinity for sodium-independent Gamma-aminobutyric acid receptor synaptic membrane binding site in rat brain tissue; format: tissue-based
[2] = target: Gamma-aminobutyric acid receptor subunit gamma-1 (Rattus norvegicus, UniProt P23574); experiment: […] of [3H]GABA at Gamma-aminobutyric acid receptor in rat brain membranes at 0.01 uM; format: cell membranes
Chain of Gamma-aminobutyric acid receptor subunit gamma-1 (P23574 whole entry): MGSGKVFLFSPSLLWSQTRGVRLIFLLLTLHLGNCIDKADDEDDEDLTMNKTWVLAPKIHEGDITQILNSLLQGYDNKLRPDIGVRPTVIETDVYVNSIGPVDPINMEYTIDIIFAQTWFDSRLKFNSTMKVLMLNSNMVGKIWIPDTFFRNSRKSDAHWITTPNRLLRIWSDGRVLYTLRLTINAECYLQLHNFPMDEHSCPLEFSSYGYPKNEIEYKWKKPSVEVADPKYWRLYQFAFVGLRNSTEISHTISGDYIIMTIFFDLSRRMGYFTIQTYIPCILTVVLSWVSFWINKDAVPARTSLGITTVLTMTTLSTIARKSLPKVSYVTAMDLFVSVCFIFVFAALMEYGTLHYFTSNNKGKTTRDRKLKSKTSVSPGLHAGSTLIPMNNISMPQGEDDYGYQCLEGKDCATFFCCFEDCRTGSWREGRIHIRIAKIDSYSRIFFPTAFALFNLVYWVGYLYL

[3] = target: GABA-A receptor; anion channel; experiment: Displacement of [3H]gamma-aminobutyric acid from sodium-independent Gamma-aminobutyric acid (GABA-A) receptor synaptic membrane binding sites from rat brain tissue

Structure (SMILES)	Relative affinity [1]	pIC50 [2]	pIC50 ([3]; read-out: IC50)	IC50 [3]
NCc1cc(O)no1	6.3	–	–	–
CN1CCc2cc3c(cc2[C@H]1[C@@H]1OC(=O)c2c1ccc1c2OCO1)OCO3 [BICUCULLINE]	0.0056	5.42	–	–
NCc1cc(=O)[nH]o1 [MUSCIMOL]	–	–	8.49	–
NCC1CCC1C(=O)O (racemic)	6.9	–	–	0.00029 M l-1
